Assay results reported in patent US20050107386A1, “Methods of treating diseases and disorders by targeting multiple kinases” (priority 2003, published 2005).

Tests used:
Aurora-A(h) = target: T1, Aurora-A(h) (Homo sapiens, UniProt O14965); test: Aurora-A(h) kinase assay; type: biochemical; conditions: 3 μM; percent of control kinase activity
T1 sequence (O14965 1-403): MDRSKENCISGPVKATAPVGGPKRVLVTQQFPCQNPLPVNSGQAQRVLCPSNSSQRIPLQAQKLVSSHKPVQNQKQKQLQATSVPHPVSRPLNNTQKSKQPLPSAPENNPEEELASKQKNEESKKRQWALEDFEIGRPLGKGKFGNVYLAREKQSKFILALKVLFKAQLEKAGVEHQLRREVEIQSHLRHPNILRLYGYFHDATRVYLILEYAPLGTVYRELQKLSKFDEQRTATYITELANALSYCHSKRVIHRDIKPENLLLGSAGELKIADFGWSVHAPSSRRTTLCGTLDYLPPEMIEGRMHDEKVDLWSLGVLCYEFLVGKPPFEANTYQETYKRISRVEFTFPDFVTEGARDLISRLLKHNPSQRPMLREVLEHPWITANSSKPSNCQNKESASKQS
Description: (§1) Six compounds (presumptive single agents) were tested against a panel of 50 kinases. The results are presented in Table 2; numbers for each kinase indicate the percent of control kinase activity in the presence of a 3μM concentration of the indicated agent.
(§2) Agents that target two or more different kinases are useful in the methods of the invention as described elsewhere herein. Such compounds may be identified, and their effect on certain kinases may be identified, using the assays briefly described below in Examples 4-83. Each of these assays was carried out as described in Davies et al., Biochem. J., 351:95-105 (2000). All assays were carried out at 10 μM ATP unless otherwise noted.

cSRC(h) = cSRC(h) (Homo sapiens, UniProt P12931); test: cSRC(h) kinase assay; type: biochemical; conditions: for Inhibitory activity (% of control), cSRC(h): 3 μM, percent of control kinase activity
cSRC(h), sequence (P12931 whole entry): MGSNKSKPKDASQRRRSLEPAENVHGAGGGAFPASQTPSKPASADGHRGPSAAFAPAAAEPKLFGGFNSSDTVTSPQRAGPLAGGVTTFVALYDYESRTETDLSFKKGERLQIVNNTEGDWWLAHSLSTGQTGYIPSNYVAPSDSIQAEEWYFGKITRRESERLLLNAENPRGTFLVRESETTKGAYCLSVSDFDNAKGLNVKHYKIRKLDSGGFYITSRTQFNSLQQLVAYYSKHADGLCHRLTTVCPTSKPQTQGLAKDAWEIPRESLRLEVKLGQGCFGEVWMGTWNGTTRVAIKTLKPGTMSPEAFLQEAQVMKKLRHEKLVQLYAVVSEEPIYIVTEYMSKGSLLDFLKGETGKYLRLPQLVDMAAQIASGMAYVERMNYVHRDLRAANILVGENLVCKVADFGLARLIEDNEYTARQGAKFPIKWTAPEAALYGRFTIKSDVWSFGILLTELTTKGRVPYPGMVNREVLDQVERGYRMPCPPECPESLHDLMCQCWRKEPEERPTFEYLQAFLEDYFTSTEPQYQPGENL
Description: as §1, §2
In a final reaction volume of 25 μl, cSRC (h) (5-10 mU) is incubated with 8 mM MOPS pH 7.0, 0.2 mM EDTA, 250 μM […] (Cdc2 peptide; SEQ ID NO:7), 10 mM MgAcetate and [γ-^33P-ATP] (Specific activity approx. 500 cpm/pmol, concentration as required). The reaction is initiated by the addition of Mg^2+ [γ-^33P-ATP]. After incubation for 40 minutes at room temperature, the reaction is stopped by the addition of 5 μl of a 3% phosphoric acid solution. 10 μl of the reaction is then spotted onto a P30 filtermat and washed three times for 5 minutes in 75 mM phosphoric acid and once in methanol prior to drying and scintillation counting.

IR(h) = IR(h) (Homo sapiens, UniProt P06213); test: IR(h) kinase assay; type: biochemical; conditions: 3 μM; percent of control kinase activity
IR(h), sequence (P06213 28-1382): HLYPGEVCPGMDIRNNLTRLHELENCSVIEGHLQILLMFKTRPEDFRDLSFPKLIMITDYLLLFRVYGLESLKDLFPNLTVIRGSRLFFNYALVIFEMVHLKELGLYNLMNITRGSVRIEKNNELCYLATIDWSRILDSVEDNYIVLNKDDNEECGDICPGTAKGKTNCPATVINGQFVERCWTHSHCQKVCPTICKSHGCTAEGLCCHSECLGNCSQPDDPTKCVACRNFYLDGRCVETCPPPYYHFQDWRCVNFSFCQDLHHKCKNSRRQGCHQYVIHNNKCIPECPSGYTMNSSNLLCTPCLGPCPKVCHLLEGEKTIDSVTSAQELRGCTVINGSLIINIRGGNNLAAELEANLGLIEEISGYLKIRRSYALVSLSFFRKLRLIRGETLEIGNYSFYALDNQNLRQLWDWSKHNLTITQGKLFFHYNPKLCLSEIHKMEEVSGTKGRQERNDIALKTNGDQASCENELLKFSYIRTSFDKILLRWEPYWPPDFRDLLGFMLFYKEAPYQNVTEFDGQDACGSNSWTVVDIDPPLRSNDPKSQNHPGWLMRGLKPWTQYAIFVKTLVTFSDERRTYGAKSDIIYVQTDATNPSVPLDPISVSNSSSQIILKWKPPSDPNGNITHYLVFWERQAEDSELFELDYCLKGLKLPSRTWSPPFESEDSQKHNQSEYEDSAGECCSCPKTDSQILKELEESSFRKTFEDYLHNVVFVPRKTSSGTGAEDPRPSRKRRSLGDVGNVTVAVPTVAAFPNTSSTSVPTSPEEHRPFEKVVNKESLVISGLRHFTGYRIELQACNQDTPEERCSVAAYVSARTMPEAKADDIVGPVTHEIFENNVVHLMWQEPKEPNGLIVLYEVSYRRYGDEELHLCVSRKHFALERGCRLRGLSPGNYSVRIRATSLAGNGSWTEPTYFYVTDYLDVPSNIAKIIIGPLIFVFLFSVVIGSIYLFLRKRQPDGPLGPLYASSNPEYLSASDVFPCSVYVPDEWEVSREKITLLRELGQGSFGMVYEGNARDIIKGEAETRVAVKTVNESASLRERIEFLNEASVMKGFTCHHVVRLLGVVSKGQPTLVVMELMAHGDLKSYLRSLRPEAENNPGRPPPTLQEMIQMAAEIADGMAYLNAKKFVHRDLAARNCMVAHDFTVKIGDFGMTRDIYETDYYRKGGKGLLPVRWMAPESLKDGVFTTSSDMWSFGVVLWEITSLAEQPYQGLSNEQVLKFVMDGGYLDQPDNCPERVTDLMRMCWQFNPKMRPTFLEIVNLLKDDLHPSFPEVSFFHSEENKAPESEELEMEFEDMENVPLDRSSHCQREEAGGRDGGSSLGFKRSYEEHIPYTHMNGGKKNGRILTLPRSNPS
Description: as §1, §2
In a final reaction volume of 25 μl, IR (h) (5-10 mU) is incubated with 50 mM Tris pH 7.5, 0.1 mM EGTA, 0.1 mM NaVanadate, 0.1% β-mercaptoethanol, 250 μM […] (SEQ ID NO: 15), 10 mM MnCl2, 10 mM MgAcetate and [γ-^33P-ATP] (Specific activity approx. 500 cpm/pmol, concentration as required). The reaction is initiated by the addition of Mg^2+ [γ-^33P-ATP]. After incubation for 40 minutes at room temperature, the reaction is stopped by the addition of 5 μl of a 3% phosphoric acid solution. 10 μl of the reaction is then spotted onto a P30 filtermat and washed three times for 5 minutes in 75 mM phosphoric acid and once in methanol prior to drying and scintillation counting.

PKCμ(h) = target: T2, PKCμ(h) (Homo sapiens, UniProt Q15139); test: PKCμ(h) kinase assay; type: biochemical; conditions: 3 μM; percent of control kinase activity
T2 sequence (Q15139 1-912): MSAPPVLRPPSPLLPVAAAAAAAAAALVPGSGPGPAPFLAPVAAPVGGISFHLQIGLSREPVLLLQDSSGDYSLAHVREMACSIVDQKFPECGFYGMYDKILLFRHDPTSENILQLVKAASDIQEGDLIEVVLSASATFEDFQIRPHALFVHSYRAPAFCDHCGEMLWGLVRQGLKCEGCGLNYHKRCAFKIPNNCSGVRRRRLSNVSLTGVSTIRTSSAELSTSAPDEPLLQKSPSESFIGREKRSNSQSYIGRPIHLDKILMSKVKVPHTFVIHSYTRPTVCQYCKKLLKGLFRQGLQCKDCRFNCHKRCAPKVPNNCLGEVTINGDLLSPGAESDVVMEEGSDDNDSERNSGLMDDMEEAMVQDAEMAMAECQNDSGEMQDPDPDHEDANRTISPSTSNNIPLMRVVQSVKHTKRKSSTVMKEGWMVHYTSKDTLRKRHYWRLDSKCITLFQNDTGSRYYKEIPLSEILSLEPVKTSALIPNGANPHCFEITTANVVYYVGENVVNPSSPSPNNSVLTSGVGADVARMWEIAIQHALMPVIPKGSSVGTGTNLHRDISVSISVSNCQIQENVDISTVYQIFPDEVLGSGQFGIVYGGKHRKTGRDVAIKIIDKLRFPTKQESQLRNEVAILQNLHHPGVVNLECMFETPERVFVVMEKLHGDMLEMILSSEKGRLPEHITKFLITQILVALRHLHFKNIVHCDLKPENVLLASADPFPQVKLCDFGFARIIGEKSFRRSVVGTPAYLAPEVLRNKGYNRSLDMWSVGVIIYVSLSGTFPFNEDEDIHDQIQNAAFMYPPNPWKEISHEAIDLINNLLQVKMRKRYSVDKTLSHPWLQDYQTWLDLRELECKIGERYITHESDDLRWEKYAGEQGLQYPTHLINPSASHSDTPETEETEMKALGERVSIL
Description: as §1, §2

panel of 50 kinases = test: Panel of 50 kinases (Table 2), count of inhibited kinases; type: biochemical; conditions: compared to a no-compound control; 3 μM
Description: as §1
CC006 (5-(5-Cyclopentyl-1H-[1,2,4]triazol-3-yl)-3-(4-fluoro-phenyl)-1H-indazole) and CC007 (3-(5-(1H-1,2,4-triazol-3-yl)(1H-indazol-3-yl))phenyl-N-cyclopentylcarboxamide) were included as controls.

[1] = system: HCT-116 colon cancer cells; test: Activation of kinases and their downstream targets in HCT-116 cells; type: cell-based; conditions: concentration-dependent
From the text: CC001 is a low molecular weight mixed kinase inhibitor (MKI) with potent in vitro inhibitory activity against a variety of kinases.

HCT-116 cells = test: SCID mouse/HCT-116 xenograft model; conditions: for % Tumor Growth Inhibition / T/C (ratio of mean tumor volume for treated vs. vehicle control) / Tumor Volume: day 28; for Tumor Volume: mean ± SEM
Description: In one experiment, female CB.17 SCID mice were inoculated subcutaneously in the right hind limb with 2×10^6 HCT-116 cells. […] Treatment commenced on day 8 and proceeded for the duration of the study. All the compound treatments were given i.p. in a vehicle NPS in a volume of 5 ml/kg. […] The tumor volumes were measured twice a week using calipers. Values are mean±SEM. Statistical analysis was performed using ANOVA.
Female CB.17 SCID mice were inoculated subcutaneously in the right hind limb with 2×10^6 HCT-116 cells. […] Treatment commenced on day 8 and proceeded for the duration of the study. All the treatments were given i.p. in a vehicle NPS in a volume of 5 ml/kg.
Female CB.17 SCID mice were inoculated subcutaneously in the right hind limb with 2×10^6 HCT-116 cells. […] Treatment commenced on day 8 and proceeded for the duration of the study. All the compound treatments were given i.p. in a vehicle NPS in a volume of 5 ml/kg. […] The tumor volumes were measured twice a week using calipers.

[2] = CC001 with Camptosar, model not named
[3] = Table 4, i.p. 20 mg/kg b.i.d. (b.i.d. day 8-11, then qd)

COc1ccc2cc(-c3n[nH]c4ccc(-c5n[nH]c(CN6CCOCC6)n5)cc34)ccc2c1 [CC001, 3-(6-Methoxynaphthalen-2-yl)-5-(5-Morpholin-4-Ylmethyl-1H-[1,2,4]Triazol-3-yl)-1H-Indazole]
Inhibitory activity (% of control), Aurora-A(h) (Aurora-A(h)): 7 % of control | Inhibitory activity (% of control), cSRC(h) (cSRC(h)): 2 % of control | Inhibitory activity (% of control), IR(h) (IR(h)): 74 % of control | Inhibitory activity (% of control), PKCμ(h) (PKCμ(h)): 6 % of control | number of kinases listed in Table 2 whose activity is inhibited by more than 95% (panel of 50 kinases): 16 | activation of kinases and their downstream targets [1]: inhibited the activation of kinases and their downstream targets | effect on tumor development, in words (HCT-116 cells; CC001 at 20 mg/kg administered with 2.5 mg/kg Camptosar): equivalent to an administration of Camptosar alone at 10 mg/kg | T/C ratio (HCT-116 cells; [2]): ~15% | in vivo effects in combination, in words (HCT-116 cells; [2]): Additive in vivo effects | TGD (days to reach 1000 mm^3) (HCT-116 cells; Table 3, i.p. 20 mg/kg b.i.d.): >12 days | % Tumor Growth Inhibition (HCT-116 cells; Table 3, i.p. 20 mg/kg b.i.d.): 69.6% | T/C (ratio of mean tumor volume for treated vs. vehicle control) (HCT-116 cells; Table 3, i.p. 20 mg/kg b.i.d.): 32 | Tumor Volume (HCT-116 cells; Table 3, i.p. 20 mg/kg b.i.d.): 798.3 ± 71.1^e mm^3 | % Tumor Growth Inhibition (HCT-116 cells; Table 5, i.p. 20 mg/kg b.i.d.): 69% | T/C (ratio of mean tumor volume for treated vs. vehicle control) (HCT-116 cells; Table 5, i.p. 20 mg/kg b.i.d.): 34 | Tumor Volume (HCT-116 cells; Table 5, i.p. 20 mg/kg b.i.d.): 752.5 ± 66.6^e mm^3 | TGD (500 mm^3) (HCT-116 cells; Table 5, i.p. 20 mg/kg b.i.d., days to reach 500 mm^3): >7 days | TGD (1000 mm^3) (HCT-116 cells; Table 5, i.p. 20 mg/kg b.i.d., days to reach 1000 mm^3): >10 days | tumor mass over the course of the experiment, in words (HCT-116 cells; i.p. 20 mg/kg b.i.d., P<0.001 compared to vehicle control): significantly smaller tumor mass

CC(C)Cc1nc(-c2ccc3[nH]nc(-c4ccc5cc(OCCN6CCCC6)ccc5c4)c3c2)n[nH]1 [CC002, 5-(5-Isobutyl-1H-[1,2,4]Triazol-3-yl)-3-[6-(2-Pyrrolidin-1-yl-Ethoxy)-Naphthalen-2-yl]-1H-Indazole]
number of kinases listed in Table 2 whose activity is inhibited by more than 95% (panel of 50 kinases): 29 | TGD (days to reach 1000 mm^3) (HCT-116 cells; [3]): >12 days | % Tumor Growth Inhibition (HCT-116 cells; [3]): 68% | T/C (ratio of mean tumor volume for treated vs. vehicle control) (HCT-116 cells; [3]): 35 | Tumor Volume (HCT-116 cells; [3]): 792.8 ± 86.5^e mm^3 | tumor volumes over the course of the experiment, in words (HCT-116 cells; i.p. 20 mg/kg b.i.d. day 8-11, then qd, P<0.001 vs vehicle control): reduced tumor volumes

CC(C)(C)Cc1nc(-c2ccc3[nH]nc(-c4ccc5cc(OCc6ccccn6)ccc5c4)c3c2)n[nH]1 [CC004, 5-[5-(2,2-Dimethyl-propyl)-1H-[1,2,4]triazol-3-yl]-3-[6-(pyridine-2-ylmethoxy)-naphthalen-2-yl]-1H-indazole]
Inhibitory activity (% of control), Aurora-A(h) (Aurora-A(h)): 7 % of control | Inhibitory activity (% of control), cSRC(h) (cSRC(h)): 67 % of control | inhibitory activity against cSrc, in words (cSRC(h); summary of Table 2): somewhat less inhibitory activity | Inhibitory activity (% of control), IR(h) (IR(h)): 89 % of control | Inhibitory activity (% of control), PKCμ(h) (PKCμ(h)): 34 % of control | number of kinases listed in Table 2 whose activity is inhibited by more than 95% (panel of 50 kinases): 16

CCN1CCC[C@H]1COc1ccc2cc(-c3n[nH]c4ccc(-c5nc(CC(C)(C)C)n[nH]5)cc34)ccc2c1 [CC005, 2-[((2s)-1-ethylpyrrolidin-2-yl)methoxy]-6-{5-[3-(2,2-Dimethylpropyl)(1H-1,2,4,-triazol-5-yl)](1H-indazol-3-yl)}naphthalene]
Inhibitory activity (% of control), Aurora-A(h) (Aurora-A(h)): 0 % of control | Inhibitory activity (% of control), cSRC(h) (cSRC(h)): 3 % of control | Inhibitory activity (% of control), IR(h) (IR(h)): 31 % of control | Inhibitory activity (% of control), PKCμ(h) (PKCμ(h)): 2 % of control
